The values below come from patent publication US4663326A, “Pyrazolo[4,3-d]pyrimidine-5,7-(4H,6H)dione or -5-thione-7-one analogs” (Warner-Lambert Company, priority 1985, dated 1987).

The subject of one assay is Type 3 Phosphodiesterase. Kind of assay: PDE inhibition, Type 3 phosphodiesterase, smooth muscle (bovine coronary arteries). The assay is classed as biochemical. Conditions: 1 × 10^-5 M. From the text:
The method of Thompson, et al (Thompson, W. J., Terasaki, W. L., Epstein, P. M., Strada, S. J., Adv. Cyclic Nucleotide Res., 10:69-92, 1979), with minor modifications, was used to isolate phosphodiesterases from vascular smooth muscle. Bovine coronary arteries (right, anterior descending, and left circumflex arteries) from hearts obtained from a local slaughterhouse were used for these studies. Arteries from two hearts were used for each isolation. Hearts were kept on ice and the arteries were dissected within two hours after the animals were sacrificed. After removing all fat and connective tissue, the arteries were everted, cut into cubes with a single edge razor blade and homogenized with a Brinkman Polytron three times at a rheostat setting of 10.0 in four volumes of the PDE isolation buffer (10 mM Tris-HCl/pH 7.5, 2 mM MgCl2, and 1 mM dithiothreitol). The resulting homogenate was sonicated (30 sec/ml homogenate) and then centrifuged at 30,000×g for 20 minutes. This and all subsequent procedures were performed at 4° C. […]
Phosphodiesterase activity was measured as described previously (Weishaar, P. E., Quade, M., Boyd, D., Schenden, J., Mark, S. S., Kaplan, H. R., Drug Devel. Res., 3:517-534, 1983), in a reaction medium containing 40 mM Tris-HCl (pH 8.0), 5 mM MgCl and 4 mM 2-mercaptoethanol. […]

The test system of assay [1] is pentobarbital-anesthetized dog. Kind of assay: In vivo myocardial inotropic activity in anesthetized dog (CVAD). More on the design: species or system dog (adult mongrel). Conditions: for Percent Change Heart Rate / Percent Change Myocardial Contractility / Percent Change Blood Pressure (second value) / Percent Change Blood Pressure (first value): intravenous; for Percent Change Blood Pressure (second value): value after the slash; for Percent Change Blood Pressure (first value): value before the slash. As for the experimental part:
This test procedure is described in the following paragraphs.
This screen consists of determining the effects of increasing intravenous doses of compound on mycardial contractility (dP/dt max of left ventricular blood pressure), heart rate, and aortic blood pressure of the pentobarbital-anesthetized dog.
Adult mongrel dogs of either sex are anesthetized with pentobarbital, 35 mg/kg, IV, and are subsequently maintained under anesthesia with a continuous infusion of pentobarbital, 3.5 mg/kg/hour. The trachea is intubated but the animals are permitted to breathe spontaneously. A cannula is inserted into the femoral vein for administrating test agents. A Millar catheter tip pressure transducer or a fluid filled catheter is inserted into the ascending aorta via the femoral artery for measuring aortic blood pressure. A Millar catheter tip pressure transducer is passed into the left ventricle via the left carotid artery for measuring left ventricular blood pressure. Needle electrodes are placed subcutaneously for recording a lead II electrocardiogram (ECG).
Left ventricular and aortic blood pressures are recorded on a strip chart recorder. Heart rate, using a biotachometer triggered from the R wave of the ECG, and the first derivative of left ventricular blood pressure (dP/dt), obtained with a differentiator amplifier coupled to the corresponding pressure amplifier, are also recorded. A period of at least 30 minutes is utilized to obtain control data prior to administration of test compound.
Depending on solubility, the compounds are dissolved in 0.9% saline solution or in dilute HCl or NaOH (0.1 to 1.0N) and are diluted to volume with normal saline. Ethanol or dimethylacetamide can be used as solvents if adequate dilutions can be made. Appropriate vehicle controls are administered when needed.
Each dose of the test compound is administered in a volume of […] over a period of one minute.

Setting [2] is: intravenously at about 0.01 to 0.31 mg/kg.

On to `Cc1nn(C)c2c(=O)[nH]c(=O)[nH]c12` [Example 1, 1,3-Dimethylpyrazolo[4,3-d]pyrimidine-5,7-(4H, 6H)dione], for which the “% Inhibition of 3H-cAMP Hydrolysis, Type 3 Phosphodiesterase” value in the assay on Type 3 Phosphodiesterase is on record as “N (0-20% inhibition at 1 × 10^-5 M)”. Moreover, in assay [1] (0.10 mg/kg), the “Percent Change Heart Rate” value is recorded as 1%, the “Percent Change Myocardial Contractility” value is on record as 5%, the “Percent Change Blood Pressure (second value)” value worked out at 1% and the “Percent Change Blood Pressure (first value)” value is on record as 1%. Further, in assay [1] (0.31 mg/kg), the “Percent Change Heart Rate” value turned out to be 1%, the “Percent Change Myocardial Contractility” value came to 13%, the “Percent Change Blood Pressure (second value)” value is -1% and the “Percent Change Blood Pressure (first value)” value worked out at 1%. For the same molecule, in assay [1] (1.00 mg/kg), the “Percent Change Heart Rate” value was found to be 5%, the “Percent Change Myocardial Contractility” value amounted to 41%, the “Percent Change Blood Pressure (second value)” value is listed as -2% and the “Percent Change Blood Pressure (first value)” value is reported as 0%. Also, in assay [1] (3.10 mg/kg), the “Percent Change Heart Rate” value turned out to be 15%, the “Percent Change Myocardial Contractility” value turned out to be 90%, the “Percent Change Blood Pressure (second value)” value is given as -4% and the “Percent Change Blood Pressure (first value)” value is -2%. Besides, in assay [1] (setting [2]), the “blood pressure (in words)” value is “moderate reduction in blood pressure”, the “cardiac contractility (in words)” value is given as “dose related significant increases in cardiac contractility” and the “heart rate (in words)” value is given as “only low or minimal changes in heart rate”.
With `CCn1nc(C)c2[nH]c(=S)[nH]c(=O)c21` [Example 2, 1-Ethyl-1,4,5,6-tetrahydro-3-methyl-pyrazolo[4,3-d]pyrimidine-5-thione-7-on], the “% Inhibition of 3H-cAMP Hydrolysis, Type 3 Phosphodiesterase” value in the assay with Type 3 Phosphodiesterase is “B (36-55% inhibition at 1 × 10^-5 M)”. In assay [1] (0.10 mg/kg), the “Percent Change Heart Rate” value was 3%, the “Percent Change Myocardial Contractility” value is reported as 5%, the “Percent Change Blood Pressure (second value)” value is listed as -1% and the “Percent Change Blood Pressure (first value)” value was -1%. In addition, in assay [1] (0.30 mg/kg), the “Percent Change Heart Rate” value amounted to 2%, the “Percent Change Myocardial Contractility” value is reported as 8%, the “Percent Change Blood Pressure (second value)” value is -4% and the “Percent Change Blood Pressure (first value)” value was -3%. Further, in assay [1] (1.00 mg/kg), the “Percent Change Heart Rate” value was -1%, the “Percent Change Myocardial Contractility” value is 13%, the “Percent Change Blood Pressure (second value)” value is -4% and the “Percent Change Blood Pressure (first value)” value is reported as -2%. Also, in assay [1] (3.10 mg/kg), the “Percent Change Heart Rate” value was found to be 5%, the “Percent Change Myocardial Contractility” value amounted to 45%, the “Percent Change Blood Pressure (second value)” value is listed as -9% and the “Percent Change Blood Pressure (first value)” value is -6%.
